# In patent US20100111888A1, “Organic Compounds and Compositions Having the Ability to Modulate Fragrance Compositions” (GIVAUDAN SA, priority 2007, published 2010):
# Biological target: T1, CYP2A13 (Homo sapiens, UniProt Q16696)
# T1 construct: made in house; host or cells: Sf9 insect cells, recombinant baculovirus
# T1 sequence (Q16696 1-494): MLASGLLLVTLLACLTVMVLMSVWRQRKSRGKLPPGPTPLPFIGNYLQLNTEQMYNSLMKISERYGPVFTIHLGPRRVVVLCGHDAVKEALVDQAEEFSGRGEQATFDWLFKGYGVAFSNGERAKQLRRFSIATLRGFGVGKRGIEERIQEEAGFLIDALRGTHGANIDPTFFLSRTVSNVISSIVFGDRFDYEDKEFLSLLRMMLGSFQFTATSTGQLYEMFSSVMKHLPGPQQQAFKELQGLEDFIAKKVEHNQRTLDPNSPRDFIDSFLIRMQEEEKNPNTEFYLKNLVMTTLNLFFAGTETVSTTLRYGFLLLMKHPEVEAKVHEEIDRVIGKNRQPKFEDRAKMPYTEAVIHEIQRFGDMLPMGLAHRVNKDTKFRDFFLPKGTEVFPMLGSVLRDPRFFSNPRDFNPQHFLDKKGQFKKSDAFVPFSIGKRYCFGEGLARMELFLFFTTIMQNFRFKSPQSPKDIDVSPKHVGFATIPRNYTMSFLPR
# Test: Evaluation of test compounds as inhibitors of CYP2A13 (coumarin to Umbelliferone, fluorescence)
# Format: biochemical
# Conditions: substrate coumarin 0.006 mM; microsomes with 7 pmoles CYP2A13; 60 min at 37° C.; read-out: CYP2A13 inhibitor activity IC50
# Excerpt: P450 reductase is commercially available (BD Biosciences Gentest, USA).
# Microsomes were used which contained 7 pmoles CYP2A13.
row,Structure (SMILES),IC50 [nM]
1,"CCCCC/C(=C\c1ccc(C#N)cc1)C(C)=O [Compound ID 7, (E)-4-(2-acetylhept-1-enyl)benzonitrile]",2000
2,"CCCCC/C(=C\C1CC=CCC1)C(C)=O (stereo not shown) [Compound ID 17, (E)-3-(cyclohex-3-enylmethylene)octan-2-one]",600
3,"CCCC/C(=C\c1ccc(OC)cc1)C(C)=O [Compound ID 37, (E)-3-(4-methoxybenzylidene)heptan-2-one]",1400
4,"CCCCC/C(=C\c1cccs1)C(C)=O [Compound ID 9, (E)-3-(thiophen-2-ylmethylene)octan-2-one]",5300
5,"CCCC/C(=C\c1ccccc1)C(C)=O [Compound ID 33, (E)-3-benzylideneheptan-2-one]",600
6,"CCCCC/C(=C\c1cccc(F)c1)C(C)=O [Compound ID 21, (E)-3-(3-fluorobenzylidene)octan-2-one]",300
7,"CCCCC/C(=C\c1ccncc1)C(C)=O [Compound ID 45, (E)-3-(pyridin-4-ylmethylene)octan-2-one]",500
8,"CCCCC/C(=C\c1ccc(C(=O)OC)cc1)C(C)=O [Compound ID 40, (E)-methyl 4-(2-acetylhept-1-enyl)benzoate]",1100
9,"CCCCC/C(=C\C1CC1)C(=O)CC [Compound ID 57, (E)-4-(cyclopropylmethylene)nonan-3-one]",300
10,"CCCCC/C(=C\c1ccc(F)cc1F)C(C)=O [Compound ID 24, (E)-3-(2,4-difluorobenzylidene)octan-2-one]",200
11,"CCCCC/C(=C\c1ccccc1)C(=O)CC [Compound ID 58, (E)-4-benzylidenenonan-3-one]",500
12,"CCCCC/C(=C\c1cc(F)cc(F)c1)C(C)=O [Compound ID 25, (E)-3-(3,5-difluorobenzylidene)octan-2-one]",600
13,"CCCCCC/C(=C\c1ccccc1)C(C)=O [Compound ID 6, (E)-3-benzylidenenonan-2-one]",3000
14,"CCCCC/C(=C\c1cccnc1)C(C)=O [Compound ID 44, (E)-3-(pyridin-3-ylmethylene)octan-2-one]",100
15,"CCCCCC1(C(=O)OC)CCCC1 [Compound ID 14, methyl 1-pentylcyclopentanecarboxylate]",2100
16,"CCCCC/C(=C\c1ccccc1F)C(C)=O [Compound ID 20, (E)-3-(2-fluorobenzylidene)octan-2-one]",300
17,"CCCCC/C(=C\c1ccc2ccccc2c1)C(C)=O [Compound ID 8, (E)-3-(naphthalen-2-ylmethylene)octan-2-one]",16300
18,"CCCCC/C(=C\c1ccc(OC)cc1)C(C)=O [Compound ID 36, (E)-3-(4-methoxybenzylidene)octan-2-one]",400
19,"CCCCC/C(=C\C(C)(C)C)C(C)=O [Compound ID 55, (E)-3-(2,2-dimethylpropylidene)octan-2-one]",300
20,"CCCCC/C(=C\C1CCCCC1)C(C)=O [Compound ID 16, (E)-3-(cyclohexylmethylene)octan-2-one]",500
21,"CCCCC/C(=C\c1cccc(C)c1)C(C)=O [Compound ID 29, (E)-3-(3-methylbenzylidene)octan-2-one]",400
22,"CCCCC/C(=C\C(OC)OC)C(C)=O [Compound ID 11, (E)-3-(2,2-dimethoxyethylidene)octan-2-one]",1600
23,"CCCCC/C(=C\C(C)(C)C)C(=O)OC [Compound ID 53, (E)-methyl 2-(2,2-dimethylpropylidene)heptanoate]",1900
24,"CCCCC/C(=C\C1CCCC1)C(C)=O [Compound ID 18, (E)-3-(cyclopentylmethylene)octan-2-one]",500
25,"CCCCC/C(=C\c1c(F)c(F)c(F)c(F)c1F)C(C)=O [Compound ID 27, (E)-3-(perfluorobenzylidene)octan-2-one]",700
26,"CCCCC/C(=C\c1ccc2c(c1)OCO2)C(C)=O [Compound ID 39, (E)-3-(benzo[d][1,3]dioxol-5-ylmethylene)octan-2-one]",2000
27,"CCC/C(=C\c1ccccc1)C(C)=O [Compound ID 32, (E)-3-benzylidenehexan-2-one]",1000

# The remaining compounds from weak to strong by IC50, led by results:
row,IC50 [nM],Structure (SMILES)
1,47200,"CCCCC/C(=C/c1ccc(C(=O)OC)cc1)C(C)=O [Compound ID 41, (Z)-methyl 4-(2-acetylhept-1-enyl)benzoate]"
2,15500,"CCCC/C(=C\C1CCOC1)C(C)=O (stereo not shown) [Compound ID 10, (E)-3-((tetrahydrofuran-3-yl)methylene)heptan-2-one]"
3,14300,"CCCCC/C(=C/c1cc(F)cc(F)c1)C(C)=O [Compound ID 26, (Z)-3-(3,5-difluorobenzylidene)octan-2-one]"
4,9700,"CCCCCC/C(=C\C1CC1)C(=O)/C=C/C1CC1 [Compound ID 13, (1E,4E)-1-cyclopropyl-4-(cyclopropylmethylene)dec-1-en-3-one]"
5,8700,"CCCCCC(CC1CC1)C(=O)OC (stereo not shown) [Compound ID 48, methyl 2-(cyclopropylmethyl)heptanoate]"
6,6600,"CCCCC/C(=C\C1CC1)C(=O)c1ccccc1 [Compound ID 52, (E)-2-(cyclopropylmethylene)-1-phenylheptan-1-one]"
7,4400,"CCCCCC(Cc1ccccc1)C(=O)OC (stereo not shown) [Compound ID 49, methyl 2-benzylheptanoate]"
8,3200,"CCCCC/C(=C\CC1(C)OCCO1)C(C)=O [Compound ID 12, (E)-3-(2-(2-methyl-1,3-dioxolan-2-yl)ethylidene)octan-2-one]"
9,2600,"CCCCC/C(=C\C(C)(C)C)C(=O)O [Compound ID 54, (E)-2-(2,2-dimethylpropylidene)heptanoic acid]"
10,2500,"CCCCC/C(C(C)=O)=C(/C)c1ccccc1 [Compound ID 51, (E)-3-(1-phenylethylidene)octan-2-one]"
11,2300,"CCCCC/C(=C\C1CC1)C(=O)OC [Compound ID 46, (E)-methyl 2-(cyclopropylmethylene)heptanoate]"
12,2000,"CCC/C(=C\c1ccc(OC)cc1)C(C)=O [Compound ID 38, (E)-3-(4-methoxybenzylidene)hexan-2-one]"
13,1300,"CCCCCC(CC1CC1)C(C)=O (stereo not shown) [Compound ID 50, 3-(cyclopropylmethyl)octan-2-one]"
14,700,"CCCCCC1(C(C)=O)CCCC1 [Compound ID 15, 1-(1-pentylcyclopentyl)ethanone]"
15,500,"CCCCC/C(=C\c1cccc(OC)c1)C(C)=O [Compound ID 35, (E)-3-(3-methoxybenzylidene)octan-2-one]"
16,500,"CCCCC/C(=C\c1ccccc1)C(=O)OC [Compound ID 47, (E)-methyl 2-benzylideneheptanoate]"
17,400,"CCCCC/C(=C\c1ccc(C)cc1)C(C)=O [Compound ID 30, (E)-3-(4-methylbenzylidene)octan-2-one]"
18,400,"CCCCC/C(=C\c1ccc(F)cc1)C(C)=O [Compound ID 22, (E)-3-(4-fluorobenzylidene)octan-2-one]"
19,400,"CCCCC/C(=C\c1ccccc1OC)C(C)=O [Compound ID 34, (E)-3-(2-methoxybenzylidene)octan-2-one]"
20,300,"CCCCC/C(=C\C1CCC1)C(C)=O [Compound ID 19, (E)-3-(cyclobutylmethylene)octan-2-one]"
21,300,"CCCCC/C(=C\c1ccccc1C)C(C)=O [Compound ID 28, (E)-3-(2-methylbenzylidene)octan-2-one]"
22,200,"CCCCC/C(=C\c1ccccc1C(F)(F)F)C(C)=O [Compound ID 31, (E)-3-(2-(trifluoromethyl)benzylidene)octan-2-one]"
23,200,"CCCCC/C(=C\c1c(F)cccc1F)C(C)=O [Compound ID 23, (E)-3-(2,6-difluorobenzylidene)octan-2-one]"
24,200,"CCCCC/C(=C\C(C)C)C(C)=O [Compound ID 56, (E)-3-(2-methylpropylidene)octan-2-one]"
25,100,"CCCCC/C(=C\c1ccccn1)C(C)=O [Compound ID 43, (E)-3-(pyridin-2-ylmethylene)octan-2-one]"
